# Measured values: US20230122510A1, “CANNABINOID DERIVATIVES” (CANOPY GROWTH CORPORATION, priority 2019, published 2023)
# Tests used:
# human CB1 receptor = target: T1, human CB1 receptor (Homo sapiens, UniProt P21554); test: CB1 radioligand competitive binding assay ([3H]CP 55,940 displacement); conditions: for IC50: displacement of 0.8 nM [3H]CP 55,940, membranes of CHO-K1 cells expressing human CB1 receptor; for Selectivity CB1: fold difference between CB1 and CB2 binding, (CB1 over CB2)
# T1 construct: host or cells: CHO-K1
# T1 sequence (P21554 whole entry): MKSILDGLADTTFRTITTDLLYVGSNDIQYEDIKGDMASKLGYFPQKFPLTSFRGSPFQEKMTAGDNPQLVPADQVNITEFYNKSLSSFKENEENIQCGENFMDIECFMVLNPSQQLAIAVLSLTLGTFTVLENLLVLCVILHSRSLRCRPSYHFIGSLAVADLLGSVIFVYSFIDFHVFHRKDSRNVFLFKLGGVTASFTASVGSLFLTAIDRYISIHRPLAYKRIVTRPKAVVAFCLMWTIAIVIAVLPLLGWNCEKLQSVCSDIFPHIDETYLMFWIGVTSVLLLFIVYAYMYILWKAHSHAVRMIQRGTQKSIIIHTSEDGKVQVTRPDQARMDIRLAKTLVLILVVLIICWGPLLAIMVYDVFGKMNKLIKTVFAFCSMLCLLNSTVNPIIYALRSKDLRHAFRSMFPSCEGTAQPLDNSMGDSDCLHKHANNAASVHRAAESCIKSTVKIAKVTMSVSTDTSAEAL
# human CB2 receptor = target: T2, human CB2 receptor (Homo sapiens, UniProt P34972); test: CB2 radioligand competitive binding assay ([3H]CP 55,940 displacement); conditions: for IC50: displacement of 0.6 nM [3H]CP55,940, membranes of CHO-K1 cells expressing human CB2 receptor; for Selectivity CB2: fold difference between CB1 and CB2 binding, the receptor with higher binding affinity (CB2 over CB1)
# T2 construct: host or cells: CHO-K1
# T2 sequence (P34972 whole entry): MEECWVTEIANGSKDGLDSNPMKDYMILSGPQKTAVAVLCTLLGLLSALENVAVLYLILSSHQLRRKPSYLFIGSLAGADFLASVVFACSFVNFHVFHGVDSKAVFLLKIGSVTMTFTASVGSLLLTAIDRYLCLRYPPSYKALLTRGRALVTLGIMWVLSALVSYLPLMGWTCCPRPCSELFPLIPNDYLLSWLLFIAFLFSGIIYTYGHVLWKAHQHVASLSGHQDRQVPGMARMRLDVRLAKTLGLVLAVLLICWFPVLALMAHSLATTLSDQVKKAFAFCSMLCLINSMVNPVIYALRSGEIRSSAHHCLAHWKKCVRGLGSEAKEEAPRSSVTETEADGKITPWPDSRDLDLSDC
# Experimental: Compounds of the present disclosure were tested for CB1 receptor binding affinity and for CB2 receptor binding affinity. As used herein, “binding affinity” is represented by the IC50 value, which was experimentally determined as described herein. The lower the IC50 value the higher the binding affinity. A compound of the present disclosure may be said to have “binding selectivity” if it has a higher binding affinity for one receptor compared to the other.
# The membranes were prepared from CHO-K1 (Chinese hamster ovary) cells stably transfected with the human CB2 receptor (Cat. #ES-111-C; Perkin Elmer, Boston, Mass.). The cells were grown adherently and maintained in Ham's F12 medium containing 10% fetal bovine serum (FBS), penicillin, streptomycin and geneticin (G418) at 37° C. in a humid atmosphere of 5% CO2 following the manufacturer's instructions.
# For membrane preparation the cells were washed with PBS and scraped off the plates in cold homogenization buffer (25 mM HEPES (pH 7.4), 2 mM EDTA) containing protease inhibitor cocktail (Sigma Cat. #P8340). The cell suspension was homogenized with a Pro-PK-01200D Polytron Homogenizer (Pro Scientific) and then centrifuged for 30 min at 120,000×g. The supernatant was discarded and the pellet was re-suspended in the homogenization buffer and stored at −80° C. until the time of use.
# In this experiment, 3H radiolabeled CP 55,940, i.e. [3H]CP 55,940 (Perkin Elmer, Boston, Mass.), was used as a radioligand for the CB2 receptor to determine the binding affinity of compounds for the CB2 receptor (Scheme 6; above).
# The competition binding experiments (single dose and dose-response) were performed by incubating 0.6 nM of [3H]CP55,940 (specific activity 101 Ci/mmol, Perkin Elmer) and different concentrations of compounds disclosed herein with membranes prepared as above from CHO-K1 cells expressing human CB2 receptor (1 μg of protein/well), 50 mM Tris-HCl (pH 7.4), 5 mM MgCl2, 1 mM CaCl2, and 2 mg/mL BSA.
# For the single dose experiments, the compound stocks (usually 10 mM in DMSO) were diluted to working stocks in the binding buffer to give the final compound concentrations of 10 μM and 1 μM. For the dose-response experiments the test compounds were sequentially diluted to provide the desired concentration range for the […] determination. In each case the compounds were pre-incubated with the membrane for 20 min, before adding the radioligand.
# After incubation with the radioligand for 60 min at 37° C., the incubation was terminated by rapid filtration of assay mixture through MultiScreen®HTS^+ 96-well filter plates (Millipore, Cat. #MSFCNXB), pre-soaked for 60 min with 50 mM Tris-HCl (pH 7.4) containing 0.33% polyethylenimine (PEI). The nonspecific binding (NSB) was determined in the presence of 10 μM unlabelled CP55,940. After drying the filter plate at 50° C. for at least 60 min, the filter-bound radioactivity was determined by scintillation spectrometry using the 1450 MicroBeta Plate Counter (Perkin Elmer, Boston, Mass.). From the dose-response experiments, the IC50 values were determined (see Table 1, CB2 IC50).
# Where the test compound had about the same affinity for both receptors, this is represented by a value of 1.00 in the column for both receptors.
SMILES,IC50 (human CB1 receptor),Selectivity CB1 (human CB1 receptor),IC50 (human CB2 receptor),Selectivity CB2 (human CB2 receptor)
"CCCCCc1cc(O)c(C/C=C(\C)CCC=C(C)C)c(O)c1-c1cc2ccccc2o1 [Compound 32, 4-(benzofuran-2-yl)-2-(3,7-dimethylocta-2,6-dien-1-yl)-5-pentylbenzene-1,3-diol]",500 to 990 nM,1.16 fold,1000 to 4990 nM,
"CCCCCc1cc(O)c(C/C=C(\C)CCC=C(C)C)c(O)c1-c1cccc(N2CCOCC2)c1 [Compound 36, 3-(3,7-dimethylocta-2,6-dien-1-yl)-3′-morpholino-6-pentyl-[1,1′-biphenyl]-2,4-diol]",< 500 nM,,< 500 nM,8.93 fold
"CCCCCc1cc(O)c(C/C=C(\C)CCC=C(C)C)c(O)c1-c1ccncc1 [Compound 14, 2-(3,7-dimethylocta-2,6-dien-1-yl)-5-pentyl-4-(pyridin-4-yl)benzene-1,3-diol]",1000 to 4990 nM,,500 to 990 nM,2.27 fold
"CCCCCc1cc(O)c(C/C=C(\C)CCC=C(C)C)c(O)c1-c1cncs1 [Compound 18, 2-(3,7-dimethylocta-2,6-dien-1-yl)-5-pentyl-4-(thiazol-5-yl) benzene-1,3-diol]",1000 to 4990 nM,,500 to 990 nM,2.32 fold
"CCCc1cc(O)c(C/C=C(\C)CCC=C(C)C)c(O)c1-c1cc2ccccc2o1 [Compound 44, 4-(benzofuran-2-yl)-2-(3,7-dimethylocta-2,6-dien-1-yl)-5-propylbenzene-1,3-diol]",500 to 990 nM,1.67 fold,1000 to 4990 nM,
"CCCCCc1cc(O)c(C/C=C(\C)CCC=C(C)C)c(O)c1-c1c(C)noc1C [Compound 37, 4-(3,5-dimethylisoxazol-4-yl)-2-(3,7-dimethylocta-2,6-dien-1-yl)-5-pentylbenzene-1,3-diol]",> 5000 nM,,1000 to 4990 nM,7.14 fold
"CCCCCc1cc(O)c(C/C=C(\C)CCC=C(C)C)c(O)c1-c1cncnc1 [Compound 13, 2-(3,7-dimethylocta-2,6-dien-1-yl)-5-pentyl-4-(pyrimidin-5-yl) benzene-1,3-diol]",1000 to 4990 nM,,1000 to 4990 nM,1.85 fold
"CCCCCc1cc(O)c(C/C=C(\C)CCC=C(C)C)c(O)c1-c1ccc2nccnc2c1 [Compound 40, 2-(3,7-dimethylocta-2,6-dien-1-yl)-5-pentyl-4-(quinoxalin-6-yl)benzene-1,3-diol]",500 to 990 nM,1.65 fold,1000 to 4990 nM,
"CCCCCc1cc(O)c(C/C=C(\C)CCC=C(C)C)c(O)c1-c1cnc2ccccc2c1 [Compound 42, 2-(3,7-dimethylocta-2,6-dien-1-yl)-5-pentyl-4-(quinolin-3-yl) benzene-1,3-diol]",500 to 990 nM,2.69 fold,1000 to 4990 nM,
"CCCCCc1cc(O)c(C/C=C(\C)CCC=C(C)C)c(O)c1-c1cn[nH]c1 [Compound 38, 2-(3,7-dimethylocta-2,6-dien-1-yl)-5-pentyl-4-(1H-pyrazol-4-yl) benzene-1,3-diol]",500 to 990 nM,,500 to 990 nM,1.21 fold
"CCCCCc1cc(O)c(C/C=C(\C)CCC=C(C)C)c(O)c1-c1cc2ccccc2s1 [Compound 33, 4-(benzo[b]thiophen-2-yl)-2-(3,7-dimethylocta-2,6-dien-1-yl)-5-pentylbenzene-1,3-diol]",1000 to 4990 nM,,500 to 990 nM,1.45 fold
"CCCCCc1cc(O)c(C/C=C(\C)CCC=C(C)C)c(O)c1-c1ccnn1C [Compound 35, (E)-2-(3,7-dimethylocta-2,6-dien-1-yl)-4-(1-methyl-1H-pyrazol-5-yl)-5-pentylbenzene-1,3-diol]",1000 to 4990 nM,,1000 to 4990 nM,1.21 fold
"CCCCCc1cc(O)c(C/C=C(\C)CCC=C(C)C)c(O)c1-c1ccnc(C)c1 [Compound 39, 2-(3,7-dimethylocta-2,6-dien-1-yl)-4-(2-methylpyridin-4-yl)-5-pentylbenzene-1,3-diol]",1000 to 4990 nM,,500 to 990 nM,2.18 fold
"CCCCCc1cc(O)c(C/C=C(\C)CCC=C(C)C)c(O)c1-c1ccco1 [Compound 15, 2-(3,7-dimethylocta-2,6-dien-1-yl)-4-(furan-2-yl)-5-pentylbenzene-1,3-diol]",1000 to 4990 nM,,1000 to 4990 nM,2.11 fold
"CCCCCc1cc(O)c(C/C=C(\C)CCC=C(C)C)c(O)c1-c1ccsc1 [Compound 17, 2-(3,7-dimethylocta-2,6-dien-1-yl)-5-pentyl-4-(thiophen-3-yl)benzene-1,3-diol]",1000 to 4990 nM,,500 to 990 nM,2.10 fold
"CCCCCc1cc(O)c(C/C=C(\C)CCC=C(C)C)c(O)c1-c1cc(C)cs1 [Compound 34, 2-(3,7-dimethylocta-2,6-dien-1-yl)-4-(4-methylthiophen-2-yl)-5-pentylbenzene-1,3-diol]",500 to 990 nM,,< 500 nM,2.15 fold
"CCCc1cc(O)c(C/C=C(\C)CCC=C(C)C)c(O)c1-c1ccsc1 [Compound 43, 2-(3,7-dimethylocta-2,6-dien-1-yl)-5-propyl-4-(thiophen-3-yl) benzene-1,3-diol]",1000 to 4990 nM,,500 to 990 nM,2.26 fold
"CCCCCc1cc(O)c(C/C=C(\C)CCC=C(C)C)c(O)c1-c1ccc2[nH]ncc2c1 [Compound 41, 2-(3,7-dimethylocta-2,6-dien-1-yl)-4-(1H-indazol-5-yl)-5-pentylbenzene-1,3-diol]",< 500 nM,79.18 fold,500 to 990 nM,
